# Assay results reported in US4882349A, “Pyrrolacetic amides having antiinflammatory activity” (priority 1982, dated 1989).
# Assays:
# [1] = system: phenyl-p-quinone-induced writhing (abdominal contractions); test: phenylquinone-induced writhing test (analgesic activity), compound given 30 min before phenyl-p-quinone; type: in vivo, male Wistar rats
# How it was run: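 Male Wistar rats (110±5 g), fasted 14 h, received test compounds orally or parenterally in 0.5% CMC/saline vehicle 30 min before 2 ml of 0.36% phenyl-p-quinone in 5% ethanol.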
# [2] = system: carrageenin-induced oedema; test: carrageenin-induced oedema test (anti-inflammatory activity); type: in vivo, albino male Wistar rats
# [3] = system: cough provoked by mechanical stimulation of the tracheal bifurcation mucosa; test: antitussive activity, mechanically provoked coughing; type: in vivo, albino Guinea-pigs; details: 1 h after administration
# How it was run: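 Albino guinea-pigs (300 g) with a tracheal Y cannula; coughing provoked by mechanically stimulating the tracheal bifurcation mucosa with a boar's hair.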
# [4] = system: mucus secreted by the respiratory airway; test: antisecretory activity, respiratory mucus secretion; type: in vivo, albino male New Zealand rabbits; details: vs control group
# How it was run: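 Male New Zealand rabbits, groups of four, urethane-anaesthetised (1.1 g/kg i.p.) with tracheal Y cannula breathing 100%-humidity air at 39° C. Mucus collected and measured 3 and 6 h post-dose; change expressed as percent difference from vehicle controls.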
# [5] = 50 mg/Kg, Table IV (route not given), 2 h
# [6] = 50 mg/Kg, Table IV (route not given), 4 h
# [7] = 50 mg/Kg, Table IV (route not given), 6 h
# [8] = 50 mg/Kg, Table IV (route not given), 24 h
# [9] = 50 mg/Kg, Table IV (route not given), 48 h
# [10] = 50 mg/Kg, Table IV (route not given), 72 h
# [11] = 100 mg/Kg, Table IV (route not given), 2 h
# [12] = 100 mg/Kg, Table IV (route not given), 4 h
# [13] = 100 mg/Kg, Table IV (route not given), 6 h
# [14] = 100 mg/Kg, Table IV (route not given), 24 h
# [15] = 100 mg/Kg, Table IV (route not given), 48 h
# [16] = 100 mg/Kg, Table IV (route not given), 72 h
smiles,measurement,setting,value
"Cc1ccc(C(=O)c2ccc(CC(=O)N3CCN(C)CC3)n2C)cc1 [Compound 3-b, 1-methyl-5-p-toluoylpyrrole-2-N-[(4-methyl)-1-piperazinyl] acetamide]",% Protection,[1]; 5 mg/Kg i.p.,28.0%
same,% Protection,[1]; 5 mg/Kg per os,20.0%
same,% Protection,[1]; 10 mg/Kg i.p.,50.0%
same,% Protection,[1]; 10 mg/Kg per os,52.0%
same,% Protection,[1]; 20 mg/Kg i.p.,80.3%
same,% Protection,[1]; 20 mg/Kg per os,78.0%
same,oedema % inhibition,"[2]; 25 mg/Kg per os, 2 h",28.1%
same,oedema % inhibition,"[2]; 25 mg/Kg per os, 4 h",33.4%
same,oedema % inhibition,"[2]; 25 mg/Kg per os, 6 h",30.0%
same,oedema % inhibition,"[2]; 25 mg/Kg per os, 24 h",10.2%
same,oedema % inhibition,"[2]; 25 mg/Kg per os, 48 h",0.0%
same,oedema % inhibition,"[2]; 25 mg/Kg per os, 72 h",0.0%
same,oedema % inhibition,"[2]; 25 mg/Kg, Table IV (route not given), 2 h",33.2%
same,oedema % inhibition,"[2]; 25 mg/Kg, Table IV (route not given), 4 h",36.0%
same,oedema % inhibition,"[2]; 25 mg/Kg, Table IV (route not given), 6 h",30.0%
same,oedema % inhibition,"[2]; 25 mg/Kg, Table IV (route not given), 24 h",10.0%
same,oedema % inhibition,"[2]; 25 mg/Kg, Table IV (route not given), 48 h",0.0%
same,oedema % inhibition,"[2]; 25 mg/Kg, Table IV (route not given), 72 h",0.0%
same,oedema % inhibition,"[2]; 50 mg/Kg per os, 2 h",49.1%
same,oedema % inhibition,"[2]; 50 mg/Kg per os, 4 h",48.0%
same,oedema % inhibition,"[2]; 50 mg/Kg per os, 6 h",49.7%
same,oedema % inhibition,"[2]; 50 mg/Kg per os, 24 h",15.2%
same,oedema % inhibition,"[2]; 50 mg/Kg per os, 48 h",0.0%
same,oedema % inhibition,"[2]; 50 mg/Kg per os, 72 h",0.0%
same,oedema % inhibition,[2]; [5],52.3%
same,oedema % inhibition,[2]; [6],55.6%
same,oedema % inhibition,[2]; [7],58.9%
same,oedema % inhibition,[2]; [8],11.2%
same,oedema % inhibition,[2]; [9],0.0%
same,oedema % inhibition,[2]; [10],0.0%
same,oedema % inhibition,"[2]; 100 mg/Kg per os, 2 h",69.7%
same,oedema % inhibition,"[2]; 100 mg/Kg per os, 4 h",68.0%
same,oedema % inhibition,"[2]; 100 mg/Kg per os, 6 h",69.0%
same,oedema % inhibition,"[2]; 100 mg/Kg per os, 24 h",35.0%
same,oedema % inhibition,"[2]; 100 mg/Kg per os, 48 h",8.9%
same,oedema % inhibition,"[2]; 100 mg/Kg per os, 72 h",0.0%
same,oedema % inhibition,[2]; [11],73.4%
same,oedema % inhibition,[2]; [12],77.1%
same,oedema % inhibition,[2]; [13],72.9%
same,oedema % inhibition,[2]; [14],25.6%
same,oedema % inhibition,[2]; [15],1.4%
same,oedema % inhibition,[2]; [16],0.0%
same,"% inhibition, cough amplitude",[3]; 50 mg/Kg i.p.,20%
same,"% inhibition, cough frequency",[3]; 50 mg/Kg i.p.,28%
same,"% inhibition, cough amplitude",[3]; 50 mg/Kg per os,18%
same,"% inhibition, cough frequency",[3]; 50 mg/Kg per os,29%
same,"% inhibition, cough amplitude",[3]; 75 mg/Kg i.p.,30%
same,"% inhibition, cough frequency",[3]; 75 mg/Kg i.p.,20%
same,"% inhibition, cough amplitude",[3]; 75 mg/Kg per os,30%
same,"% inhibition, cough frequency",[3]; 75 mg/Kg per os,18%
same,"% inhibition, cough amplitude",[3]; 100 mg/Kg i.p.,52%
same,"% inhibition, cough frequency",[3]; 100 mg/Kg i.p.,40%
same,"% inhibition, cough amplitude",[3]; 100 mg/Kg per os,45%
same,"% inhibition, cough frequency",[3]; 100 mg/Kg per os,39%
same,% difference in mucus secretion,"[4]; 50 mg/Kg i.p., 3 h",-12%
same,% difference in mucus secretion,"[4]; 50 mg/Kg i.p., 6 h",-10%
same,% difference in mucus secretion,"[4]; 50 mg/Kg per os, 3 h",-9%
same,% difference in mucus secretion,"[4]; 50 mg/Kg per os, 6 h",-5%
same,% difference in mucus secretion,"[4]; 75 mg/Kg i.p., 3 h",-25%
same,% difference in mucus secretion,"[4]; 75 mg/Kg i.p., 6 h",-22%
same,% difference in mucus secretion,"[4]; 75 mg/Kg per os, 3 h",-18%
same,% difference in mucus secretion,"[4]; 75 mg/Kg per os, 6 h",-10%
same,% difference in mucus secretion,"[4]; 100 mg/Kg i.p., 3 h",-40%
same,% difference in mucus secretion,"[4]; 100 mg/Kg i.p., 6 h",-36%
same,% difference in mucus secretion,"[4]; 100 mg/Kg per os, 3 h",-36%
same,% difference in mucus secretion,"[4]; 100 mg/Kg per os, 6 h",-30%
"Cc1ccc(C(=O)c2ccc(CC(=O)O)n2C)cc1 [Tolmetin Na.2H2 O, 1-methyl-5-p-toluoylpyrrole-2-acetic acid, reference compound]",% Protection,[1]; 10 mg/Kg per os,40.0%
same,oedema % inhibition,"[2]; 10 mg/Kg per os, 2 h",44.8%
same,oedema % inhibition,"[2]; 10 mg/Kg per os, 4 h",29.2%
same,oedema % inhibition,"[2]; 10 mg/Kg per os, 6 h",10.2%
same,oedema % inhibition,"[2]; 10 mg/Kg per os, 24 h",0.0%
same,oedema % inhibition,"[2]; 10 mg/Kg per os, 48 h",0.0%
same,oedema % inhibition,"[2]; 10 mg/Kg per os, 72 h",0.0%
same,oedema % inhibition,"[2]; 10 mg/Kg, Table IV (route not given), 2 h",46.0%
same,oedema % inhibition,"[2]; 10 mg/Kg, Table IV (route not given), 4 h",39.1%
same,oedema % inhibition,"[2]; 10 mg/Kg, Table IV (route not given), 6 h",20.0%
same,oedema % inhibition,"[2]; 10 mg/Kg, Table IV (route not given), 24 h",0.0%
same,oedema % inhibition,"[2]; 10 mg/Kg, Table IV (route not given), 48 h",0.0%
same,oedema % inhibition,"[2]; 10 mg/Kg, Table IV (route not given), 72 h",0.0%
same,oedema % inhibition,"[2]; 50 mg/Kg per os, 2 h",48.0%
same,oedema % inhibition,"[2]; 50 mg/Kg per os, 4 h",55.3%
same,oedema % inhibition,"[2]; 50 mg/Kg per os, 6 h",55.2%
same,oedema % inhibition,"[2]; 50 mg/Kg per os, 24 h",0.0%
same,oedema % inhibition,"[2]; 50 mg/Kg per os, 48 h",0.0%
same,oedema % inhibition,"[2]; 50 mg/Kg per os, 72 h",0.0%
same,oedema % inhibition,[2]; [5],53.8%
same,oedema % inhibition,[2]; [6],60.0%
same,oedema % inhibition,[2]; [7],58.4%
same,oedema % inhibition,[2]; [8],0.0%
same,oedema % inhibition,[2]; [9],0.0%
same,oedema % inhibition,[2]; [10],0.0%
same,oedema % inhibition,"[2]; 100 mg/Kg per os, 2 h",50.8%
same,oedema % inhibition,"[2]; 100 mg/Kg per os, 4 h",57.3%
same,oedema % inhibition,"[2]; 100 mg/Kg per os, 6 h",54.8%
same,oedema % inhibition,"[2]; 100 mg/Kg per os, 24 h",9.7%
same,oedema % inhibition,"[2]; 100 mg/Kg per os, 48 h",7.8%
same,oedema % inhibition,"[2]; 100 mg/Kg per os, 72 h",0.0%
same,oedema % inhibition,[2]; [11],57.0%
same,oedema % inhibition,[2]; [12],66.0%
same,oedema % inhibition,[2]; [13],67.1%
same,oedema % inhibition,[2]; [14],8.7%
same,oedema % inhibition,[2]; [15],2.0%
same,oedema % inhibition,[2]; [16],0.0%
same,"% inhibition, cough amplitude",[3]; 50 mg/Kg i.p.,0%
same,"% inhibition, cough frequency",[3]; 50 mg/Kg i.p.,0%
same,"% inhibition, cough amplitude",[3]; 50 mg/Kg per os,0%
same,"% inhibition, cough frequency",[3]; 50 mg/Kg per os,0%
same,"% inhibition, cough amplitude",[3]; 75 mg/Kg i.p.,0%
same,"% inhibition, cough frequency",[3]; 75 mg/Kg i.p.,10%
same,"% inhibition, cough amplitude",[3]; 75 mg/Kg per os,7%
same,"% inhibition, cough frequency",[3]; 75 mg/Kg per os,0%
same,"% inhibition, cough amplitude",[3]; 100 mg/Kg i.p.,7%
same,"% inhibition, cough frequency",[3]; 100 mg/Kg i.p.,10%
same,"% inhibition, cough amplitude",[3]; 100 mg/Kg per os,5%
same,"% inhibition, cough frequency",[3]; 100 mg/Kg per os,5%
same,% difference in mucus secretion,"[4]; 50 mg/Kg i.p., 3 h",+3%
same,% difference in mucus secretion,"[4]; 50 mg/Kg i.p., 6 h",+7%
same,% difference in mucus secretion,"[4]; 50 mg/Kg per os, 3 h",+5%
same,% difference in mucus secretion,"[4]; 50 mg/Kg per os, 6 h",+10%
same,% difference in mucus secretion,"[4]; 75 mg/Kg i.p., 3 h",+8%
same,% difference in mucus secretion,"[4]; 75 mg/Kg i.p., 6 h",+10%
same,% difference in mucus secretion,"[4]; 75 mg/Kg per os, 3 h",0.0%
same,% difference in mucus secretion,"[4]; 75 mg/Kg per os, 6 h",+2%
same,% difference in mucus secretion,"[4]; 100 mg/Kg i.p., 3 h",+7%
same,% difference in mucus secretion,"[4]; 100 mg/Kg i.p., 6 h",0.0%
same,% difference in mucus secretion,"[4]; 100 mg/Kg per os, 3 h",+5%
same,% difference in mucus secretion,"[4]; 100 mg/Kg per os, 6 h",0.0%
